Test results taken from ChEMBL document CHEMBL5550135, “Targeting the cysteine biosynthesis pathway in microorganisms: Mechanism, structure, and drug discovery” (Eur J Med Chem, 2024).
≈ marks a conversion by molar mass, not a printed value.

How the values were obtained:
[1] = Binding affinity to Salmonella Typhimurium ATCC 14028 O-acetylserine sulfhydrylase B assessed as dissociation constant; design: species or system Salmonella enterica subsp. enterica serovar Typhimurium
[2] = Binding affinity to Salmonella Typhimurium ATCC 14028 O-acetylserine sulfhydrylase A assessed as dissociation constant; design: species or system Salmonella enterica subsp. enterica serovar Typhimurium
[3] = system: Mycobacterium tuberculosis; assay: Antimycobacterial activity against Mycobacterium tuberculosis H37Rv assessed as reduction in bacterial growth incubated for 7 days by resazurin based assay; type: functional; conditions: 168 h, time 7 day
Escherichia coli = assay: Antibacterial activity against Escherichia coli assessed as reduction in bacterial growth by broth microdilution method; type: functional
Staphylococcus aureus = assay: Antibacterial activity against methicillin-resistant Staphylococcus aureus ATCC 33591 assessed as reduction in bacterial growth incubated for 18 hrs by broth microdilution method; type: functional
[4] = Inhibition of Methicillin-resistant Staphylococcus aureus ATCC 33591 Serine acetyltransferase
[5] = Inhibition of Salmonella enterica Serine acetyltransferase by spectrophotometric analysis
[6] = molecular target: O-acetylserine sulfhydrylase (Mycobacterium tuberculosis, UniProt P9WP55); assay: Inhibition of Mycobacterium tuberculosis ATCC 25618 Cysteine synthase A
[7] = Inhibition of Entamoeba histolytica O-acetylserine sulfhydrylase
[8] = Inhibition of Klebsiella pneumoniae Serine acetyltransferase

Compound `Cc1ccc(C[C@@]2(C(=O)O)C[C@H]2c2cccc(-c3cc(O)cc(F)c3)c2)cc1` has a Kd [1] of 0.61 µM and a Kd [2] of 0.03 µM.

Work on `O=C1N=C2C(C(=O)N=C3SC([N+](=O)[O-])=CN32)C(c2ccccc2C(F)(F)F)N1` (stereo unspecified) yielded an MIC [3] of 7.6 µM (≈ 3.13 µg/mL).

`Cc1ccc(S(=O)(=O)n2nc(-c3ccccc3)c3c(N)ncnc32)cc1` showed an MIC (Escherichia coli) of 0.57 mg/L (≈ 1.56 µM).

`CC1=C2[C@@H](OC1=O)C(=O)[C@H]1[C@]3(C)CCCC(C)(C)[C@H]3CC[C@@]1(O)[C@H]2O` gave an MIC (Staphylococcus aureus) of 12.5 mg/L (≈ 35.9 µM) and an IC50 [4] of 71.8 µM.

Work on `Cc1cc(C)cc(Nc2nc(-c3cc(C(=O)O)no3)co2)c1` yielded an IC50 [5] of 4.24 µM.

In the case of `O=C(CSc1c[nH]nn1)Nc1ccccc1F`, the MIC (Escherichia coli) is reported as 1.6 mg/L (≈ 6.34 µM).

`C[C@@H]1O[C@@H](O[C@@H]2C[C@H](c3ccc4c(c3O)C(=O)C3=C(C4=O)[C@@]4(O[C@H]5CC[C@H](O)[C@H](C)O5)C(=O)C[C@](C)(O)C[C@@]4(O)C=C3)O[C@H](C)[C@H]2O)CC[C@@H]1O[C@H]1C[C@@H](O)[C@H](O)[C@@H](C)O1` gave an IC50 [6] of 0.63 µM and an IC50 [7] of 0.31 µM.

Work on `O=c1c(O)c(-c2ccc(O)c(O)c2)oc2cc(O)cc(O)c12` [QUERCETIN] yielded an IC50 [8] of 3.7 µM.

In the case of `CC1(C)CCC[C@]2(C)[C@@H]1CC[C@]1(O)[C@H](O)C3=C(CO)C(=O)OC3=C[C@@H]21`, the MIC (Staphylococcus aureus) is reported as 25 mg/L (≈ 71.7 µM) and the IC50 [4] is reported as 71.8 µM.

`Cc1ccc(Nc2nc(-c3cc(C(=O)O)no3)cs2)cc1` showed an IC50 [5] of 110 µM.

In the case of `Cc1ccc(C[C@@]2(C(=O)O)C[C@H]2c2ccccc2)cc1`, the Kd [1] is reported as 0.49 µM and the Kd [2] is reported as 0.02 µM.
